Laboratory results as given in patent US20100168250A1, “USE OF CYCLOHEXANEHEXOL DERIVATIVES IN THE TREATMENT OF OCULAR DISEASE” (priority 2007, published 2010).

Test system: ARPE-19 cells
Assay: Effect of AZD103 on Aβ1-42-induced VEGF secretion in ARPE-19 cells (VEGF ELISA)
Assay type: cell-based, human
Description: The potential of AZD-103 to neutralize the effects of Aβ on VEGF expression by RPE cells was investigated using the following materials and methods.
Materials: Human VEGF Duoset, 2nd Generation was obtained from R & D Systems [# DY293B]. 3,3′,5,5′-Tetramethylbenzidine Liquid Substrate (TMB) was obtained from Sigma [# S8865]. The stop solution for TMB was also obtained from Sigma [# S5814]. Tween-20 was obtained from Fisher [# BP 337-500]; Probumin was obtained from Millipore [#82-045-1]; and, 10× Phosphate Buffered Saline (PBS) was obtained from Roche [#11666789001]. […] The Media was then assessed for levels of VEGF by ELISA (R&D Systems, Minneapolis, Minn.) VEGF ELISA: Conditioned media collected from cell cultures grown in the presence or absence of Aβ1-42 and AZD103 were tested for vascular endothelial growth factor (VEGF) expression using a human VEGF duoset ELISA development kit as described by the manufacturer (R &D systems). […] The reaction was stopped and the colour development was read spectrophotometrically at a wavelength of 450 nm.

O[C@H]1[C@H](O)[C@@H](O)[C@H](O)[C@@H](O)[C@@H]1O [AZD103]
amount of secreted VEGF (ARPE-19 cells (1.5×10^4), Aβ1-42 oligomers pre-incubated 2 hours at 37° C. with AZD103 at weight ratios 1:0.5, 1:1, 1:2, 24 Hr treatment, serum-free medium, ELISA): effective towards reducing the amount of secreted VEGF
VEGF expression by RPE cells in presence of Aβ, compared to basal levels (absence of Aβ) (ARPE-19 cells, expressed as comparison to Normal ARPE-19 cells that received no treatment): returned to basal levels
